# Experimental data from patent US20150118229A1, “JAK1 SELECTIVE INHIBITOR AND USES THEREOF” (ABBVIE INC., priority 2013, published 2015).
# Values joined by “and” are separate entries in the source; they are usually repeats but may differ in a detail not shown here. Equal values may be shown once. “Also recorded” adds a separate entry of the source.
# Legend:
# [1] = tested on: adjuvant-induced arthritis (paw swelling, bone erosion); assay: Adjuvant-induced arthritis (AIA) in Lewis rats; assay type: in vivo
# Procedure: The inflammation appears in the contra-lateral (left) hind paw seven days after the initial immunization. […] Rats are lightly anesthetized with an inhalant anesthetic (isoflurane) and the contra-lateral (left) hind paw is dipped into the plethysmograph and the paw volume is recorded. The rats are scored every other day up to day 17 after immunization. […] Bone volume and density is determined for a 360 μm (200 slice) vertical section encompassing the tarsal section of the paw. […] Drug exposure is determined in the plasma using LC/MS.
# [2] = tested on: IL-7-dependent STAT5 phosphorylation; assay: Ex vivo IL-7-stimulated pSTAT5 in blood of orally dosed rats; details: Rattus norvegicus, po; rats dosed bid 14 days, blood 12 hours after final dose; read-out: IC50, inhibition of IL-7-induced pSTAT5 formation ex vivo
# Text: Unlike other common gamma chain receptors, IL-7 receptors are expressed relatively abundantly on peripheral blood T cells, enabling the use of IL-7 as an agonist in ex vivo stimulation assays. Stimulation of whole blood with IL-7 leads to phosphorylation of STAT5, which can be measured by flow cytometry. Because STAT proteins are Jak kinase substrates, inhibition of their phosphorylation can be considered a mechanistic readout for Jak inhibition.
# Pharmacokinetics in rat = assay type: in vivo; details: for clearance: read-out: CLp (converted); for Vd: read-out: Vss
# [3] = Pharmacokinetics in monkey; assay type: in vivo; details: for Vd: read-out: Vss
# [4] = Plasma protein binding, dog; assay type: in vitro ADME
# [5] = Metabolic stability in liver microsomes, dog; assay type: in vitro ADME; details: read-out: intrinsic clearance in liver microsomes (scaled)
# [6] = Metabolic stability in liver microsomes, human; assay type: in vitro ADME; details: read-out: intrinsic clearance in liver microsomes (converted)
# [7] = Metabolic stability in hepatocytes, rat; assay type: in vitro ADME; details: read-out: intrinsic clearance in hepatocytes (converted)
# [8] = Metabolic stability in hepatocytes, human; assay type: in vitro ADME; details: read-out: intrinsic clearance in hepatocytes (converted)
# CYP3A5 = CYP3A5 (Homo sapiens, UniProt P20815); assay: Metabolism by recombinant CYP3A5; assay type: in vitro ADME
# Text: (§1) In vitro biotransformation of Compound 1 primarily occurred at imidazolpyrrolopyrazinyl ethyl pyrrolidine moiety.
# [9] = In vitro metabolism of [14C]Compound 1 in liver cytosol and hepatocytes; assay type: in vitro ADME, rat, dog, monkey, and human
# Text: as §1
# CYP1A2 = assay: CYP induction (mRNA) in human hepatocytes, CYP1A2; assay type: in vitro ADME; details: 1, 3, and 10 μM
# CYP2B6 = assay: CYP induction (mRNA) in human hepatocytes, CYP2B6; assay type: in vitro ADME
# [10] = tested on: Balb/c 3T3 mouse fibroblasts; assay: Neutral red uptake phototoxicity assay; assay type: cell-based
# [11] = Definitive embryofetal development toxicity study in rats; assay type: in vivo; details: rat
# Text: One additional group of 25 time-mated females served as the control and received the vehicle, 0.2% hydroxypropyl methylcellulose (HPMC, high viscosity) in deionized water.
# in vivo = details: both, rat, po
# Procedure: The 4-week rat study was conducted at dose levels of 0, 10, 50, 100, and 200 mg/kg/day by daily oral administration (gavage). […] The cause of death was not determined for animals that died.
# OAT3 = OAT3 (Homo sapiens, UniProt Q8TCC7); assay: Transporter inhibition, OAT3
# CYP2C19 = CYP2C19 (Homo sapiens, UniProt P33261); assay: CYP inhibition in human liver microsomes, CYP2C19
# [12] = female, Sprague-Dawley, rat, plasma, po, 50 mg/kg/day, rat F, oral 50 mg/kg/day, Day 1, mean (SD)
# [13] = male, Sprague-Dawley, rat, plasma, po, 10 mg/kg/day, rat M, oral 10 mg/kg/day, Day 1, mean (SD)
# [14] = male, Sprague-Dawley, rat, plasma, po, 100 mg/kg/day, rat M, oral 100 mg/kg/day, Day 1, mean (SD)
# [15] = plasma, rat, IV 0.3 mg/kg single dose
# [16] = plasma, rat, IV 0.3 mg/kg single dose, mean (SD)
# [17] = plasma, rat, IV 3 mg/kg single dose
# [18] = plasma, rat, IV 3 mg/kg single dose, mean (SD)
# [19] = rat, plasma, po, 3 mg/kg, oral 3 mg/kg single dose, mean (SD)
# [20] = plasma, oral 1 mg/kg single dose, mean (SD)
# [21] = plasma, oral 10 mg/kg single dose, mean (SD)
# CYP2C19, sequence (P33261 whole entry): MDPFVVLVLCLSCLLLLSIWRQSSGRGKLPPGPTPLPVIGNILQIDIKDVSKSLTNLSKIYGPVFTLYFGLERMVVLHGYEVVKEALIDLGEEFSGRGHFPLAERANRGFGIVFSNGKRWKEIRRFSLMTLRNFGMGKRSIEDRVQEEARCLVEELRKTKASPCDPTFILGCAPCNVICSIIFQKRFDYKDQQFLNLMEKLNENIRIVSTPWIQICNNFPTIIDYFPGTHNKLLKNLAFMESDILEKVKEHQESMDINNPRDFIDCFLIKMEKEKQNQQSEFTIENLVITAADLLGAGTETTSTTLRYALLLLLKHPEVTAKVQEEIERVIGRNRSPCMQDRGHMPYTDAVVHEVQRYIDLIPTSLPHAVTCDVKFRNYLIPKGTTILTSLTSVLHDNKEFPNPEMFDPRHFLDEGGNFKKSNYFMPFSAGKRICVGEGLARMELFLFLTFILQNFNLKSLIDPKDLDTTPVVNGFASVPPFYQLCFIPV
# CYP3A5, sequence (P20815 whole entry): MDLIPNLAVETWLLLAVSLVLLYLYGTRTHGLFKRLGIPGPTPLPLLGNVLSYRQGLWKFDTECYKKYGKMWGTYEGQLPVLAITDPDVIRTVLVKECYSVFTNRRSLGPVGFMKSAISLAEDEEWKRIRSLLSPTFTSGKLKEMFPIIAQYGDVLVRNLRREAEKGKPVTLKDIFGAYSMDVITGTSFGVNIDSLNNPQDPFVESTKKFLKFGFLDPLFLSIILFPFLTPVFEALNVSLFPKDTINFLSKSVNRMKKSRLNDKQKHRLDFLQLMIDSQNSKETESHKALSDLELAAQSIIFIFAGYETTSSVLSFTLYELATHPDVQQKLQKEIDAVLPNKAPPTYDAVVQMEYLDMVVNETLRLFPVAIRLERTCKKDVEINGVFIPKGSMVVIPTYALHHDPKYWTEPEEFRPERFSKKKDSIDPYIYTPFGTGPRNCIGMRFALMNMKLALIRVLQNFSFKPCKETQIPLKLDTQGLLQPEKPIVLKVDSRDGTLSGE
# OAT3, sequence (Q8TCC7 whole entry): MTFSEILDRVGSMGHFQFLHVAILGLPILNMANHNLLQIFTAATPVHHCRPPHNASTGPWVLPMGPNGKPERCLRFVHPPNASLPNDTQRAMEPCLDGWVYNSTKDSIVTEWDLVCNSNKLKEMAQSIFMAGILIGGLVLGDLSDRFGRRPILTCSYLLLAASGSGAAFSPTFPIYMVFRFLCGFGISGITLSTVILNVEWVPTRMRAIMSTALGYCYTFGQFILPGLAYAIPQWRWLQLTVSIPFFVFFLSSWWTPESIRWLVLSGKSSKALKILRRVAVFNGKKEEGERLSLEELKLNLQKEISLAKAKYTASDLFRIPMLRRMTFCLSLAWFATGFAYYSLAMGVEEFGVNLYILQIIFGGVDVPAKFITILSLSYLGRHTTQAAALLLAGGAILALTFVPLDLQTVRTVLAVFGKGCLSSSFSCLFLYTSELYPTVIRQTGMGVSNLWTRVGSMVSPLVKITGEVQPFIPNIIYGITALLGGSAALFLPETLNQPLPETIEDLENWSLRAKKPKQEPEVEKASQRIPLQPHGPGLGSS
compound,measurement,setting,value
"CC[C@@H]1CN(C(=O)NCC(F)(F)F)C[C@@H]1c1cnc2cnc3[nH]ccc3n12 [Compound 1, (3S,4R)-3-ethyl-4-(3H-imidazo[1,2-a]pyrrolo[2,3-e]pyrazin-8-yl)-N-(2,2,2-trifluoroethyl)pyrrolidine-1-carboxamide]","protection of bone erosion (tarsal bone volume, micro CT)",[1]; 3 mg/kg bid,complete protection
same,"efficacious exposure (AUC60), PK/PD modeling","[1]; AIA rats, about 60% inhibition of paw swelling",85 ng·h/mL
same,"AUC60 (60% inhibition of paw swelling), total AUC0-12","[1]; oral bid, last day of study",85 ± 20 ng·h/mL and 85 ng·h/mL
same,"AUC60, fraction unbound AUC0-12","[1]; oral bid, last day of study",34 ± 7 ng·h/mL
same,Paw Swelling (exposure),[1]; rat AIA,62 ng·h/mL
same,inhibition of Paw Swelling reached at about the same level of reticulocyte inhibition,[1]; rat AIA vs reticulocyte deployment,about 80%
same,IC50,[2],~0.02 µM
same,AUC,"Pharmacokinetics in rat; female, Sprague-Dawley, plasma, rat F, oral 10 mg/kg/day, Day 1, mean (SD)",1870 ng·h/mL
same,AUC at 29 days,"Pharmacokinetics in rat; female, Sprague-Dawley, plasma, rat F, oral 10 mg/kg/day, Day 29, mean (SD)",2280 ng·h/mL
same,AUC,"Pharmacokinetics in rat; female, Sprague-Dawley, plasma, rat F, oral 50 mg/kg/day, Day 1, mean (SD)",22400 ng·h/mL
same,AUC at 29 days,"Pharmacokinetics in rat; female, Sprague-Dawley, plasma, rat F, oral 50 mg/kg/day, Day 29, mean (SD)",33200 ng·h/mL
same,AUC,"Pharmacokinetics in rat; female, Sprague-Dawley, plasma, rat F, oral 100 mg/kg/day, Day 1, mean (SD)",54100 ng·h/mL
same,AUC at 29 days,"Pharmacokinetics in rat; female, Sprague-Dawley, plasma, rat F, oral 100 mg/kg/day, Day 29, mean (SD)",63800 ng·h/mL
same,AUC,"Pharmacokinetics in rat; female, Sprague-Dawley, plasma, rat F, oral 200 mg/kg/day, Day 1, mean (SD)",108000 ng·h/mL
same,Cmax,"Pharmacokinetics in rat; female, Sprague-Dawley, rat, plasma, po, 10 mg/kg/day, rat F, oral 10 mg/kg/day, Day 1, mean (SD)",468 ng/mL
same,Cmax at 29 days,"Pharmacokinetics in rat; female, Sprague-Dawley, rat, plasma, po, 10 mg/kg/day, rat F, oral 10 mg/kg/day, Day 29, mean (SD)",650 ng/mL
same,Cmax,Pharmacokinetics in rat; [12],5160 ng/mL
same,Tmax,Pharmacokinetics in rat; [12],2.2 h
same,Cmax,"Pharmacokinetics in rat; female, Sprague-Dawley, rat, plasma, po, 100 mg/kg/day, rat F, oral 100 mg/kg/day, Day 1, mean (SD)",13500 ng/mL
same,Cmax,"Pharmacokinetics in rat; female, Sprague-Dawley, rat, plasma, po, 200 mg/kg/day, rat F, oral 200 mg/kg/day, Day 1, mean (SD)",18200 ng/mL
same,AUC,"Pharmacokinetics in rat; male, Sprague-Dawley, plasma, rat M, oral 10 mg/kg/day, Day 1, mean (SD)",1390 ng·h/mL
same,AUC at 29 days,"Pharmacokinetics in rat; male, Sprague-Dawley, plasma, rat M, oral 10 mg/kg/day, Day 29, mean (SD)",1490 ng·h/mL
same,AUC,"Pharmacokinetics in rat; male, Sprague-Dawley, plasma, rat M, oral 50 mg/kg/day, Day 1, mean (SD)",15900 ng·h/mL
same,AUC at 29 days,"Pharmacokinetics in rat; male, Sprague-Dawley, plasma, rat M, oral 50 mg/kg/day, Day 29, mean (SD)",16800 ng·h/mL
same,AUC,"Pharmacokinetics in rat; male, Sprague-Dawley, plasma, rat M, oral 100 mg/kg/day, Day 1, mean (SD)",24900 ng·h/mL
same,AUC at 29 days,"Pharmacokinetics in rat; male, Sprague-Dawley, plasma, rat M, oral 100 mg/kg/day, Day 29, mean (SD)",40800 ng·h/mL
same,AUC,"Pharmacokinetics in rat; male, Sprague-Dawley, plasma, rat M, oral 200 mg/kg/day, Day 1, mean (SD)",50400 ng·h/mL
same,Cmax,Pharmacokinetics in rat; [13],224 ng/mL
same,Tmax,Pharmacokinetics in rat; [13],2.2 h
same,Cmax,"Pharmacokinetics in rat; male, Sprague-Dawley, rat, plasma, po, 50 mg/kg/day, rat M, oral 50 mg/kg/day, Day 1, mean (SD)",3030 ng/mL
same,Cmax,Pharmacokinetics in rat; [14],3910 ng/mL
same,Tmax,Pharmacokinetics in rat; [14],3.2 h
same,Tmax at 29 days,"Pharmacokinetics in rat; male, Sprague-Dawley, rat, plasma, po, 100 mg/kg/day, rat M, oral 100 mg/kg/day, Day 29, mean (SD)",3.2 h
same,Cmax,"Pharmacokinetics in rat; male, Sprague-Dawley, rat, plasma, po, 200 mg/kg/day, rat M, oral 200 mg/kg/day, Day 1, mean (SD)",7250 ng/mL
same,half-life,Pharmacokinetics in rat; [15],1 h
same,AUC(0-inf),Pharmacokinetics in rat; [16],80 ng·h/mL
same,clearance,Pharmacokinetics in rat; [16],63.3 mL/min/kg
same,Vd,Pharmacokinetics in rat; [15],2.7 L/kg
same,half-life,Pharmacokinetics in rat; [17],3 h
same,AUC(0-inf),Pharmacokinetics in rat; [18],1550 ng·h/mL
same,clearance,Pharmacokinetics in rat; [18],33.3 mL/min/kg
same,Vd,Pharmacokinetics in rat; [17],2.2 L/kg
same,clearance,"Pharmacokinetics in rat; plasma, rat, IV",33.3 to 63.3 mL/min/kg
same,half-life,"Pharmacokinetics in rat; plasma, rat, oral 3 mg/kg single dose",5.2 h
same,AUC(0-inf),"Pharmacokinetics in rat; plasma, rat, oral 3 mg/kg single dose, mean (SD)",472 ng·h/mL
same,Vc,"Pharmacokinetics in rat; rat, IV 0.3 mg/kg single dose",1.8 L/kg
same,Vβ,"Pharmacokinetics in rat; rat, IV 0.3 mg/kg single dose",5.7 L/kg
same,Vc,"Pharmacokinetics in rat; rat, IV 3 mg/kg single dose",0.46 L/kg
same,Vβ,"Pharmacokinetics in rat; rat, IV 3 mg/kg single dose",9.4 L/kg
same,F,"Pharmacokinetics in rat; rat, oral 3 mg/kg single dose, mean (SD), 3 mg/kg",30.5% and 30.5 (11.8) %
same,Cmax,Pharmacokinetics in rat; [19],95 ng/mL
same,Tmax,Pharmacokinetics in rat; [19],2.2 h
same,Vc,[3]; IV 0.1 mg/kg single dose,1.2 L/kg
same,Vβ,[3]; IV 0.1 mg/kg single dose,2.2 L/kg
same,Vc,[3]; IV 1.0 mg/kg single dose,1.0 L/kg
same,Vβ,[3]; IV 1.0 mg/kg single dose,2.2 L/kg
same,F,"[3]; oral 1 mg/kg single dose, mean (SD), 1 mg/kg",59.3% and 59.3 (18.1) %
same,F,"[3]; oral 10 mg/kg single dose, mean (SD)",52.3 (12.4) %
same,AUC(0-inf),"[3]; plasma, IV 0.1 mg/kg single dose, mean (SD)",72 ng·h/mL
same,clearance,"[3]; plasma, IV 0.1 mg/kg single dose, mean (SD), read-out: CLp (converted)",23.3 mL/min/kg
same,Vd,"[3]; plasma, IV 0.1 mg/kg single dose",1.9 L/kg
same,half-life,"[3]; plasma, IV 0.1 mg/kg single dose, read-out: t1/2 (converted)",1.1 h
same,AUC(0-inf),"[3]; plasma, IV 1.0 mg/kg single dose, mean (SD)",947 ng·h/mL
same,clearance,"[3]; plasma, IV 1.0 mg/kg single dose, mean (SD), read-out: CLp (converted)",20 mL/min/kg
same,Vd,"[3]; plasma, IV 1.0 mg/kg single dose",1.6 L/kg
same,half-life,"[3]; plasma, IV 1.0 mg/kg single dose, read-out: t1/2 (converted)",1.3 h
same,clearance,"[3]; plasma, IV, read-out: clearance (converted)",21.7 mL/min/kg
same,half-life,"[3]; plasma, IV, read-out: plasma elimination t½ (converted)",1.2 h
same,AUC(0-inf),[3]; [20],562 ng·h/mL
same,Cmax,[3]; [20],134 ng/mL
same,AUC(0-inf),[3]; [21],4950 ng·h/mL
same,Cmax,[3]; [21],960 ng/mL
same,Tmax,[3]; [21],4.3 h
same,fraction unbound,[4],0.82
same,CLint scaled at 0.5 μM,[5],< 33.3 mL/min/kg
same,CLint scaled at 0.5 μM,[6],31.2 mL/min/kg
same,CLint scaled at 1 μM,[7],67.8 mL/min/kg
same,CLint scaled at 1 μM,[8],6.1 mL/min/kg
same,percentage of parent remaining,CYP3A5,80.6%
same,metabolism in liver cytosol incubations,[9]; liver cytosol,No metabolism
same,turnover in hepatocytes,"[9]; rat, dog, monkey, human hepatocytes",< 10%
same,mRNA expression of CYP1A2,CYP1A2,did not increase
same,"CYP2B6 mRNA expression, % of the response of phenobarbital",CYP2B6; 10 μM,25%
same,mRNA expression of CYP2B6,CYP2B6; 1 and 3 μM,did not increase
same,phototoxicity potential,[10],negative
same,"maternal clinical observations, body weights, food consumption, macroscopic examinations",[11]; GD 6 to 17,No Compound 1-related effects
same,NOEL,"[11]; oral, GD 6-17",NOEL < 5 mg/kg/day
same,NOAEL at 4 weeks,in vivo,50 mg/kg/day
same,IC50,OAT3,43 µM
same,time-dependent inhibition of CYP2C19,CYP2C19; human liver microsomes,No obvious time-dependent inhibition
same,inhibition of CYP2C19,CYP2C19; up to 30 μM,did not inhibit; also recorded: not an inhibitor
